Reference: patent US6410249B1, “Odorant receptors” (priority 1999, dated 2002)
Read-outs that look alike come from different tables or passages of the source.

How the values were obtained:
[1] = test system: goldfish olfactory neurons; experiment: multi-unit recordings from the goldfish olfactory epithelium; assay type: cell-based; settings: 100 μM
receptor 5.24 = molecular target: T1, receptor 5.24 (Carassius auratus, UniProt Q9PW88); experiment: 3H-L-arginine saturation binding to membranes of receptor 5.24-expressing HEK 293 cells; parameters: species or system goldfish
T1 construct: The receptor 5.24 full length cDNA detects 1-2 bands in genomic DNA blots; expressed in transfected cells; host or cells: HEK 293 cells expressing SV40 large T antigen (293-TSA)
T1 sequence (Q9PW88 25-877): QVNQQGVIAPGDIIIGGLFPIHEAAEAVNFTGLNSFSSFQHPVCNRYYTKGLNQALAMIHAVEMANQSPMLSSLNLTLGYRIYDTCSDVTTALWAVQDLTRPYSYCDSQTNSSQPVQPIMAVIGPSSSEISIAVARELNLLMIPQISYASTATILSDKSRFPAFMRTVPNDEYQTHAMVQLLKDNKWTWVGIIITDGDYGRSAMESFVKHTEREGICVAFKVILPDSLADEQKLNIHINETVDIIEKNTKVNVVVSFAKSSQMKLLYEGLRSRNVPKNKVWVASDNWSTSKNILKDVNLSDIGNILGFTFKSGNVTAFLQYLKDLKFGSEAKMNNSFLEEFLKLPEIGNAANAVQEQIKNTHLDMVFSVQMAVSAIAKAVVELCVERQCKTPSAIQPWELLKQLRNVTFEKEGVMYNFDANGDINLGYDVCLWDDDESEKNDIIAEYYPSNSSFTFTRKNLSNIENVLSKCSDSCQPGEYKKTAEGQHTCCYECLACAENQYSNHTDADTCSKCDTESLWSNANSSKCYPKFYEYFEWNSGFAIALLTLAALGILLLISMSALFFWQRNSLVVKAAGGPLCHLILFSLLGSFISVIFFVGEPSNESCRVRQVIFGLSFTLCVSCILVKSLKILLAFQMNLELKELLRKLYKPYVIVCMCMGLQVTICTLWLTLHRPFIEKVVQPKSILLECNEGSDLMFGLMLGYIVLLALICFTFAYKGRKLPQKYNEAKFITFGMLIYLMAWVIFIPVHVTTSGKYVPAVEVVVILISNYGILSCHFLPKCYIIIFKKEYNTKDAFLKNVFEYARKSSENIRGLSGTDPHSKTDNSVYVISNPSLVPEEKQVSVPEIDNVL
From the text: High-Affinity Binding of Radiolabeled L-Arginine to the Cloned Goldfish Odorant Receptor. To determine the affinity of the cloned goldfish amino acid receptor for basic amino acids, we characterized the ligand-receptor interaction by radiolabeled ligand binding to receptors expressed in mammalian cells. Human embryonic kidney (HEK) 293 cells were transfected with expression plasmids containing the receptor 5.24 cDNA insert. […] We next wished to determine what second messenger pathway receptor 5.24 couples to in HEK 293 cells. Control cells or cells expressing receptor 5.24 were exposed to varying concentrations of arginine and assayed for the accumulation of IP3 and cAMP.
Mammalian Cell Culture and DNA Transfections. For cell transfections, the receptor 5.24 cDNA insert was subcloned into two expression vectors: CMVI, which utilizes a human cytomegalovirus (CMV) immediate early promoter-enhancer plus the CMV intron A sequence to drive expression, and 608RX-2.2L, which is similar to CMVI except the cDNA insert is followed by an internal ribosome entry site (IRES)—enhanced green fluorescent protein (EGFP) coding sequence; 608RX-2.2L also contains a puromycin resistance gene. For transient assays, HEK 293 cells expressing the SV40 large T antigen (293 TSA cells) were transfected with the CMVI-receptor 5.24 or CMVI control plasmid using lipofectamine (Life Technologies) and harvested at 48 hours for membrane preparations. For stable cell lines, 293-TSA cells were transfected with the 608RX-2.2L-receptor 5.24 plasmid or a control 608RX-2.2L plasmid and selected in puromycin. Colonies showing high levels of EGFP fluorescence (as judged by epifluorescence microscopy) were picked, expanded, and screened for 3H-L-arginine binding (see below). In five independent receptor 5.24-transfected stable cell lines, receptor densities (Rt) varied between 0.5 and 6.0 pmol L-arginine binding sites/mg membrane protein. […] All competition binding assays and signal transduction studies were performed using the stable cell line 5.24-20 (Rt=2.0 pmol /mg) and a control cell line (2.2-9) stably transfected with vector alone (Rt=0.03 pmol/mg).
Membrane Preparations and Ligand Binding Assays. Membranes for ligand binding assays were prepared by washing confluent cells three times with phosphate buffered saline (PBS), detaching cells with a PBS-based enzyme-free dissociation solution, and resuspending cells in ice-cold 5.0 mM Hepes, pH 7.4, 1.0 mM EDTA, 1.0 μg/ml leupeptin, 0.5 mM PMSF. All subsequent manipulations were performed on ice. After a 30 min incubation, the cell suspension was homogenized and centrifuged at 100,000×g for 30 min. Cell membrane pellets were washed twice by resuspension and centrifugation in binding buffer (20 mM Hepes, pH 7.4, 1.0 mM EDTA, 2.0 mM MgCl2, 1.0 μg/ml leupeptin, 0.5 mM PMSF), resuspended in binding buffer, and frozen at −80° C.
Saturation binding assays were performed using 20-25 μg of membrane protein in a final volume of 100 μl binding buffer and increasing concentrations of [2,3-3H] L-arginine (specific activity=40 Ci/mmol; Dupont NEN). Non-specific binding was measured in the presence of 500 μM unlabeled L-arginine. Competition assays were performed with 500 nM [2,3-3H] […] Filters were washed three times with 4.0 ml ice cold 20 mM Hepes, pH 7.4, and retained radioactivity was measured by scintillation counting. […] Data were analyzed by nonlinear curve fitting using Origin software (Microcal). […]

For `N=C(N)NCCC[C@H](N)C(=O)O` [L-Arginine], the “locations with spontaneous activity that responded” value [1] was 25 out of 28, the Kd (receptor 5.24; mean±SEM, n=4, read-out: dissociation constant (Kd)) was 121 ± 33 nM and the Hill coefficient (receptor 5.24; mean±SEM, n=4 determinations) was 0.95±0.07. For the same compound, the Kd (receptor 5.24; range of n=4 determinations, read-out: dissociation constant (Kd), range) was 52 to 207 nM and the Kd (receptor 5.24; summary statement, read-out: Kd (high affinity interaction)) was about 100 nM.
